Key:
PC3 cells = assay: MTT cytotoxicity assay, PC3
Experimental: (§1) Human cervical cancer HeLa, human osteosarcoma U2OS, human prostate PC3 cell lines were procured from the ATCC. A549 lung carcinoma cells were obtained from Prof. David E. Root, Whitehead Institute for Biomedical Research. HeLa, U2OS, and A549 Cells were grown at 37° C. in 5% CO2 in DMEM medium supplemented with 10% fetal bovine serum and 1% penicillin/streptomycin. PC3 cells were grown at 37° C. in 5% CO2 in RPMI supplemented with 10% fetal bovine serum and 1% penicillin/streptomycin. Cells were passed every 3 to 4 days and restarted from frozen stocks upon reaching pass number 20.
(§2) In order to investigate the efficacy of Pt-DNA-Au NPs, their ability to kill cancer cells of various origin was measured. […] Cells were seeded on a 96 well plate in 100 μL media and incubated for 24 hours. The cells were then treated with Pt-DNA-Au NP, 1, or cisplatin, separately at varying concentrations and incubated for 72 hours at 37° C. Medium was removed, cells were washed with PBS and then incubated with cell culture medium containing 20% 3-(4,5-dimethylthiazol-2-yl)-2,5-diphenyltetrazolium bromide (MTT). […] Cells were further incubated overnight and the absorbance was measured at 620 nm using a BioTek Synergy HT multi-detection microplate plate reader. […]

[1] = Cyclic voltammetry, reduction potential of the Pt(IV) complex; assay type: physicochemical; settings: Ag/AgCl reference, 25° C.
Experimental: The conjugate was designed to release a cytotoxic dose of cisplatin upon intracellular reduction. An ideal Pt(IV) complex should be sufficiently stable to travel through the blood stream until it reaches a tumor cell without decomposition. Once inside the cell, however, it should have an appropriate reduction potential such that it will be reduced and release its cytotoxic payload. Electrochemical measurements were made at 25° C. on a EG&G PAR Model 263 Potentiostat/Galvanostat with electrochemical analysis software 270 and a three electrode set-up comprising a glassy carbon working electrode, platinum wire auxiliary electrode and a Ag/AgCl reference electrode. The electrochemical data were uncorrected for junction potentials. KCl was used as a supporting electrolyte.

A549 cells = tested on: A549 cells
Experimental: as §1, §2

U2OS cells = assay: MTT cytotoxicity assay, U2OS; assay type: cell-based, human; settings: 72 hour treatment
Experimental: as §1, §2

SMILES	cytotoxicity (in words) (PC3 cells)	reduction potential ([1]; pH 6.0, phosphate buffer-0.1 M KCl)	reduction potential ([1]; pH 7.4, phosphate buffer-0.1 M KCl, extrapolated to 0.0 mV s-1 scan rate)	cytotoxicity (in words) (A549 cells)	IC50 (PC3 cells; PC3 cells, 72 hour treatment, MTT)	IC50 (U2OS cells)
[NH2][Pt]([NH2])([OH])([Cl])([Cl])[O]C(=O)CCC(=O)O [Compound 1, c,c,t-[Pt(NH3)2Cl2(OH)(O2CCH2CH2CO2H)]]	did not show any significant killing	−0.42 V	−0.49 V	did not show any significant killing		
N.N.[Cl][Pt][Cl] [cisplatin, cis-diamminedichloroplatinum(II), reference compound]					4.6 µM	5.1 µM
